Results on four molecules are retold here after patent publication US20190375786A1, “STABLE PEPTIDES AND METHODS OF USE THEREOF” (Fred Hutchinson Cancer Research Center, priority 2016, published 2019).

One data set concerns the target trypsin (Sus scrofa, UniProt P00761). In words: Trypsin digestion resistance of soluble peptide, RP-HPLC. In kind it is in vitro ADME, porcine. On the set-up: purchased Sigma Aldrich 6567. Particulars: 500 U/ml trypsin, 30 minutes at 37.5° C.; HPLC peak vs untreated peptide. The gist of the method: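 Read-out was RP-HPLC (C-18, water/acetonitrile with 0.1% TFA, 5-45% over 10 min) of peptide left after trypsin treatment. Digest: 12.5 μg peptide, 500 U/ml porcine trypsin, PBS, 37.5° C for 30 min, stopped by soybean trypsin inhibitor; samples then reduced (10 mM DTT) or left non-reduced.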

The target of a further data set is pepsin (Sus scrofa, UniProt P00791). As to the kind of experiment: Pepsin digestion resistance in simulated gastric fluid, RP-HPLC. In kind it is in vitro ADME, porcine. Particulars: 500 U/ml pepsin in SGF pH 1.05, 30 minutes at 37.5° C.; HPLC peak vs untreated peptide. On the set-up: purchased Sigma Aldrich P7012. The essentials: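 Digestion resistance read by reversed-phase HPLC (C-18, 0.1% TFA, 5–45% acetonitrile over 10 min; 214/280 nm) after 12.5 μg peptide spent 30 min at 37.5 °C in pH 1.05 simulated gastric fluid, with or without 500 U/ml pepsin. Some samples quenched with Tris base and DTT.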

SMILES strings stand for the structures. Positions of bridges follow the written chain, without caps; N, C: chain ends. Residues, ends and D or L forms follow the SMILES beside them.

Sequence of trypsin (P00761 9-231): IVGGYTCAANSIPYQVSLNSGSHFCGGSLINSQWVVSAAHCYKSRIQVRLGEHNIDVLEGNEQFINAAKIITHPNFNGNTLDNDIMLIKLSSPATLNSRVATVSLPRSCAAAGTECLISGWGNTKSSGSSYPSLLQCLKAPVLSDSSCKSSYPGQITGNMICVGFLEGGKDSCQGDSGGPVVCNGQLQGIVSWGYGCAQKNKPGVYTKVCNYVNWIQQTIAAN
Sequence of pepsin (P00791 60-385): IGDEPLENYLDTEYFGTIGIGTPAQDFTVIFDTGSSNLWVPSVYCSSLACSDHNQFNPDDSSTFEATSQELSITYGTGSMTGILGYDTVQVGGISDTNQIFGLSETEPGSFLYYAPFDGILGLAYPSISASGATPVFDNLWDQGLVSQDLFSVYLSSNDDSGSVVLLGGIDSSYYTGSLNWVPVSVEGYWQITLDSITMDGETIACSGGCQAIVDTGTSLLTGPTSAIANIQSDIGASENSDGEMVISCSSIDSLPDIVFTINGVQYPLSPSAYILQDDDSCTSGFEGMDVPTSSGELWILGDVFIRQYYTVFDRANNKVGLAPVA

Consider `CC(C)[C@H](NC(=O)[C@H](CO)NC(=O)CN)C(=O)N[C@@H](CO)C(=O)N[C@H]1CSSC[C@@H]2NC(=O)[C@H](CCCCN)NC(=O)[C@H](C)NC(=O)[C@H](CCCNC(=N)N)NC(=O)[C@H](CCC(N)=O)NC(=O)[C@H](CC(=O)O)NC(=O)[C@H](CCCCN)NC(=O)[C@H]([C@@H](C)O)NC(=O)[C@H](C)NC(=O)[C@@H]3CSSC[C@@H](C(=O)N[C@@H](CCC(=O)O)C(=O)N4CCC[C@H]4C(=O)N[C@@H](CCCCN)C(=O)O)NC(=O)[C@H](C(C)C)NC(=O)[C@H](CSSC[C@H](NC(=O)[C@H](CC(=O)O)NC(=O)[C@H](CCC(=O)O)NC1=O)C(=O)N1CCC[C@H]1C(=O)N[C@@H](CCC(=O)O)C(=O)N[C@@H](Cc1c[nH]cn1)C(=O)N3)NC(=O)[C@H](CCCNC(=N)N)NC(=O)[C@H](CC(=O)O)NC(=O)[C@H](CC(N)=O)NC(=O)[C@H](CC(=O)O)NC2=O` [compound 54] (H-GSVSCEDCPEHCATKDQRAKCDNDRCVCEPK-OH; disulfide 5-21, 8-26, 12-28), for which the “Resistance to Trypsin (500 U/ml)” value on trypsin was “Low (A peptide classified as low indicates that the majority (over 75%) of the HPLC peak of the treated peptide disappeared as compared to the HPLC peak of the untreated peptide)”. Also, at pepsin, the “Resistance to Pepsin (500 U/ml)” value is “High (A peptide classified as high indicates that the majority (at least 75%) of the HPLC peak of the treated peptide is still present as compared to the HPLC peak of the untreated peptide)”.
The like results for `CC[C@H](C)[C@H](NC(=O)CNC(=O)[C@H](CO)NC(=O)CN)C(=O)N[C@H](C(=O)N[C@H]1CSSC[C@@H]2NC(=O)[C@H]([C@@H](C)CC)NC(=O)[C@H](CC(N)=O)NC(=O)[C@H](C(C)C)NC(=O)[C@H](CCCCN)NC(=O)[C@H](CCCCN)NC(=O)CNC(=O)[C@H](CCC(N)=O)NC(=O)[C@H](CCSC)NC(=O)CNC(=O)[C@@H]3CSSC[C@@H](C(=O)N[C@@H](CCCCN)C(=O)N[C@@H](CCCCN)C(=O)NCC(=O)O)NC(=O)[C@H](CCCCN)NC(=O)[C@H](CSSC[C@H](NC(=O)[C@H](C(C)C)NC(=O)[C@H](CCCCN)NC1=O)C(=O)N[C@@H](CCCCN)C(=O)N[C@@H]([C@@H](C)CC)C(=O)N[C@@H]([C@@H](C)CC)C(=O)N3)NC(=O)[C@H](CCCCN)NC(=O)[C@H]([C@@H](C)CC)NC(=O)[C@@H]1CCCN1C(=O)[C@H](C)NC(=O)[C@H](CCCCN)NC2=O)C(C)C` [compound 55] (H-GSGIVCKVCKIICGMQGKKVNICKAPIKCKCKKG-OH; disulfide 6-23, 9-29, 13-31) were, in that order, “Low (A peptide classified as low indicates that the majority (over 75%) of the HPLC peak of the treated peptide disappeared as compared to the HPLC peak of the untreated peptide)” and “High (A peptide classified as high indicates that the majority (at least 75%) of the HPLC peak of the treated peptide is still present as compared to the HPLC peak of the untreated peptide)”.
In the case of `CC[C@H](C)[C@@H]1NC(=O)[C@@H]2CSSC[C@@H]3NC(=O)[C@H](CCCCN)NC(=O)CNC(=O)[C@H](CC(N)=O)NC(=O)[C@H](CCSC)NC(=O)[C@H](CSSC[C@H](NC(=O)[C@H](CCCCN)NC(=O)[C@@H](NC(=O)[C@H](CC(=O)O)NC(=O)[C@@H](NC(=O)[C@@H]4CCCN4C(=O)[C@@H](NC(=O)CNC(=O)[C@H](CO)NC(=O)CN)C(C)C)[C@@H](C)O)C(C)C)C(=O)N[C@@H](CCCNC(=N)N)C(=O)NCC(=O)N[C@@H](CO)C(=O)N4CCC[C@H]4C(=O)N[C@@H](CCC(N)=O)C(=O)N2)NC(=O)[C@H](CCCCN)NC(=O)CNC(=O)[C@H](Cc2ccccc2)NC(=O)[C@H](CCCNC(=N)N)NC(=O)[C@H](CCSC)NC(=O)CNC(=O)[C@H](C)NC(=O)[C@H](CC(=O)O)NC(=O)[C@H](CCCCN)NC(=O)[C@H](CSSC[C@@H](C(=O)N[C@H](C(=O)N2CCC[C@H]2C(=O)N[C@@H](CCCCN)C(=O)O)[C@@H](C)O)NC(=O)[C@H](Cc2c[nH]cn2)NC3=O)NC(=O)[C@@H]2CCCN2C(=O)[C@H](CCC(N)=O)NC1=O` [compound 56] (H-GSGVPTDVKCRGSPQCIQPCKDAGMRFGKCMNGKCHCTPK-OH; disulfide 10-30, 16-35, 20-37), the “Resistance to Trypsin (500 U/ml)” value on trypsin is “Low (A peptide classified as low indicates that the majority (over 75%) of the HPLC peak of the treated peptide disappeared as compared to the HPLC peak of the untreated peptide)”. Further, the “Resistance to Pepsin (500 U/ml)” value on pepsin is “High (A peptide classified as high indicates that the majority (at least 75%) of the HPLC peak of the treated peptide is still present as compared to the HPLC peak of the untreated peptide)”.
For the molecule `CC[C@H](C)[C@@H]1NC(=O)[C@H](CCCCN)NC(=O)[C@@H](NC(=O)[C@H](CCCCN)NC(=O)[C@@H](NC(=O)[C@H](CC(N)=O)NC(=O)[C@@H](NC(=O)[C@@H](NC(=O)[C@@H](NC(=O)CNC(=O)[C@H](CO)NC(=O)CN)C(C)C)[C@@H](C)CC)[C@@H](C)CC)C(C)C)CSSC[C@@H]2NC(=O)[C@H](CCCCN)NC(=O)CNC(=O)[C@H](Cc3ccccc3)NC(=O)[C@H](CCCNC(=N)N)NC(=O)[C@H](CCSC)NC(=O)CNC(=O)[C@H](C)NC(=O)[C@H](CCCCN)NC(=O)[C@H](CCCCN)NC(=O)[C@@H]3CSSC[C@@H](C(=O)N[C@H](C(=O)N4CCC[C@H]4C(=O)N[C@@H](CCCCN)C(=O)O)[C@@H](C)O)NC(=O)[C@H](Cc4c[nH]cn4)NC(=O)[C@H](CSSC[C@H](NC(=O)[C@H](CCC(N)=O)NC(=O)[C@H](CCCNC(=N)N)NC(=O)[C@H](CO)NC1=O)C(=O)N[C@@H](CC(C)C)C(=O)N[C@@H](CCC(=O)O)C(=O)N1CCC[C@H]1C(=O)N3)NC(=O)[C@H](CCCCN)NC(=O)CNC(=O)[C@H](CC(N)=O)NC(=O)[C@H](CCSC)NC2=O` [compound 57], the “Resistance to Trypsin (500 U/ml)” value on trypsin is given as “High (A peptide classified as high indicates that the majority (at least 75%) of the HPLC peak of the treated peptide is still present as compared to the HPLC peak of the untreated peptide)”. Besides, the “Resistance to Pepsin (500 U/ml)” value on pepsin was “High (A peptide classified as high indicates that the majority (at least 75%) of the HPLC peak of the treated peptide is still present as compared to the HPLC peak of the untreated peptide)”.
